The text below walks through data of paper PMC9148072, “Design, Cytotoxicity and Antiproliferative Activity of 4-Amino-5-methyl-thieno[2,3-d]pyrimidine-6-carboxylates against MFC-7 and MDA-MB-231 Breast Cancer Cell Lines” (Molecules, 2022).

For one data set, the system named is ABC efflux pumps. More on the design: method as in PMID 19783433. As to conditions: Figure 1; read-out: EC50 in the daunorubicin accumulation assay; cited from earlier work.
For another data set, the system named is VEGER. Also on record: method as in PMID 30343204. As to conditions: Figure 1; cited from earlier work.
A further data set relates to Tie-2. Also on record: method as in PMID 19854647. As to conditions: Figure 1; read-out: Tie-2 cells IC50; cited from earlier work.
A further data set concerns MCF-10A cell line. Put plainly: MTT antiproliferative assay, MCF-10A. Type of data set: cell-based. The settings on record: Homo sapiens, 72 h. As for the experimental part:
(§1) The compounds were studied for antiproliferative activity by standard MTT dye-reduction assay. Cell cultures from MCF-10A, MCF-7 and MDAMB-231 cell lines were incubated for 72 h in the presence of the tested substances in a wide range of concentrations. At the MCF-10A and MDA-MB-231 cell lines, compound 4 was applied in the range from 0.5 to 100 µg/mL, and all others from 4 to 1000 µg/mL.
In order to determine antitumor activity, as a reliable model and a control we used the MCF-10A cell line (normal human mammary epithelial cells).
(§2) All breast cell lines (MCF-10A, MCF-7 and MDA-MB-231) were purchased from the American Type Culture Collection—ATCC (Manassas, VA, USA). The MCF-7 and MDA-MB-231 were cultivated in Dulbecco’s Modified Eagle’s Medium (DMEM) supplemented with 10% fetal bovine serum (FBS), 1% sodium pyruvate, 1% MEM nonessential amino acids (NEAA) without antibiotics. The nontumorigenic breast cell line (MCF-10A) was cultivated in DMEM medium (Sigma-Aldrich, St. Louis, MO, USA) supplemented with 10% FBS, 1% sodium pyruvate, 1% nonessential amino acids (NEAA), 20 ng/mL human epithelia growth factor (hEGF), 10 μg/mL insulin, and 0.5 μg/mL hydrocortisone without antibiotics. All cell lines were maintained in a humidified atmosphere with 5% CO2 at 37 °C.
(§3) Using the standard MTT dye-reduction assay, described by Mosmann the antiproliferative activity was tested. The method is based on the metabolism of the tetrazolium salt MTT to insoluble formazan. The formazan absorption was registered using a microplate reader at λ = 540 nm. The measured absorption is an indicator of cell viability and metabolic activity. Antiproliferative activities were expressed as IC50 values (concentrations required for 50% inhibition of cell growth), calculated using nonlinear regression analysis (GraphPad Software, San Diego, CA, USA).
(Formazan colour is commonly taken as a measure of viable cells.)

Another data set concerns BALB 3T3 cells. In words: 3T3 Neutral Red Uptake (NRU) cytotoxicity test. The settings on record: BALB 3T3, 15 to 4000 µg/mL, 24 h. Type of data set: cell-based, mouse.
Data set [1] can be described thus: 3T3 Neutral Red Uptake (NRU) cytotoxicity test. Type of data set: cell-based, mouse. As to conditions: mouse, BALB/3T3 clone A31 cells.
In the next data set the test system is MDA-MB-231 cell line. In words: MTT antiproliferative assay, MDA-MB-231. Type of data set: cell-based, human. As to conditions: for IC50: Homo sapiens, MDA-MB-231, 72 h, MTT. As for the experimental part:
as §1, §2, §3

Another data set has as its system MCF-7 cell line. In words: MTT antiproliferative assay, MCF-7. As to conditions: for IC50: Homo sapiens, MCF7, MCF-7, 72 h, MTT. Type of data set: cell-based, human. As to the method:
as §1
The MCF-7 cell line was treated with compounds 2, 3 and 4 at concentrations from 0.5 to 100 µg/mL, and all others from 4 to 1000 µg/mL. The antiproliferative activity expressed in % relative to the negative control (untreated cells accepted as a 100% viable or 0% antiproliferative activity) was determined and shown on Figure 6.
as §2, §3

The structures appear in SMILES notation. Read-outs that look alike come from different tables or passages of the source.

In general, EC50 refers to the concentration needed to bring the measured effect to its halfway point. For `Nc1nc(SCCc2ccccc2)nc2sc3c(c12)CCCC3` [V], in the data set on ABC efflux pumps, the EC50 is 1.02 µM.

The IC50 is the concentration needed to halve the response being measured. Consider `CC(=O)c1cccc(NC(=O)Nc2ccc(Nc3ncnc4sc5c(c34)CCCC5)cc2)c1` [VIII], for which, in the data set on VEGER, the IC50 was 1.5 µM.

With `Cn1cnc(-c2cccc(NC(=O)Nc3cc(C(F)(F)F)ccc3F)c2)c1-c1cc2c(N)ncnc2s1` [I], in the data set on Tie-2, the IC50 was 0.07 µM.

As a reminder, the CC50 is the concentration at which the toxic effect on the cells reaches its halfway point. The melting point is the temperature, or range, at which the solid turns liquid. The compound `CCOC(=O)c1sc2nc(-c3ccncc3)nc(N)c2c1C.Cl` [Compound 6, Ethyl 4-Amino-5-methyl-2-(pyridin-4-yl)thieno[2,3-d]pyrimidine-6-carboxylate hydrochloride] gave a melting point of 259 to 261 °C. In addition, the IC50 in the data set on MCF-10A cell line (read-out: IC50 Antiproliferative Activity MCF-10A (converted)) is 1310 µM. In addition, in the data set with MCF-10A cell line (read-out: IC50 ± SD Antiproliferative Activity MCF-10A), the IC50 came to 411 ± 5.1 µg/mL. Further, the “cytotoxicity versus BALB 3T3 cells (in words)” value in the data set on BALB 3T3 cells is reported as “not cytotoxic”. Also, the CC50 at 24 h in data set [1] (BALB 3T3, 24 h, no irradiation, read-out: CC50 of Mean ± SD, Cytotoxicity) is > 4000 µg/mL. In [1] (BALB 3T3, converted from µg/mL, read-out: IC50 cytotoxicity against BALB 3T3), the IC50 at 24 h is > 13000 µM. Moreover, in the data set with MDA-MB-231 cell line (read-out: IC50 Antiproliferative Activity MDA-MB-231 in µM (converted)), the IC50 was 370 µM. In addition, the IC50 with MDA-MB-231 cell line (read-out: IC50 ± SD Antiproliferative Activity MDA-MB-231) turned out to be 116 ± 9.63 µg/mL. Besides, in the data set on MDA-MB-231 cell line (SI = IC50 of MCF-10A/IC50 of MDA-MB-231), the “Selective Index MDA-MB-231” value came to 3.54. In the data set on MCF-7 cell line (read-out: IC50 Antiproliferative Activity MCF-7 in µM (converted)), the IC50 was 1410 µM. In addition, the 50% inhibitory concentration (IC50) in the data set with MCF-7 cell line (read-out: IC50 ± SD Antiproliferative Activity MCF-7) is 444 ± 9.2 µg/mL. The “Selective Index MCF-7” value in the data set with MCF-7 cell line (SI = IC50 of MCF-10A/IC50 of MCF-7) is reported as 0.92.
